Data set [1] is described as follows: Distance between Hansen solubility parameter of the substance and that of phenol, HSP (phenol). The data set is classed as physicochemical. The conditions noted are these: distance to Hansen solubility parameter of phenol, 25° C. An excerpt:
The Hansen solubility parameter is obtained by decomposing solubility parameter δt (SP) introduced by a person into dispersion force contribution term δd between molecules, dipole interaction contribution term δp between molecules, and hydrogen bond contribution term δh between molecules, thereby extending an applicable substance to a polar substance and a substance generating hydrogen bonding. […] The relationship between the solubility parameter δt and the three contribution terms is shown in the following formula: […]
The three parameters of the dispersion force contribution term δd, the dipole interaction contribution term δp, and the hydrogen bond contribution term δh can be regarded as coordinates in a three-dimensional space with the respective parameters as axes. Since various substances have specific HSPs at a specified temperature, HSPs of these substances are represented as points at different positions in the three-dimensional space as shown in FIG. 1. The solubility (compatibility) between given substance i and another substance j is considered to be higher as distance Rij between two points represented by the following formula becomes smaller.
Accordingly, a magnitude of influence of given substance X on phenol selective filtering performance can be evaluated by obtaining a distance between a position of HSP of phenol and a position of HSP of the given substance X in the three-dimensional space. In the present specification and claims, the distance Rij obtained from the Hansen solubility parameter of phenol and the Hansen solubility parameter of the given substance X according to the above formula is defined as HSP (phenol).

Data set [2] is described as follows: Dropping point DP of the substance (JIS K2220:2013). The class given is physicochemical. The procedure:
A substance having a dropping point (DP) of 50° C. or higher is less likely to be fluidized under relatively high temperature storage conditions, e.g., in a vending machine having a high temperature. […] Furthermore, when the phenol scavenger contains a substance that is less likely to leak out from a filter or the like, the substance is likely to remain in the filter or the like, and therefore, a member having excellent phenol selective filtering performance can be realized. […] The dropping point of the substance is preferably in a range from 50° C. to 130° C. When the dropping point of the substance is excessively high, the phenol scavenger containing the substance may not be easily carried by a filter or the like, which is not preferable. The dropping point of the substance can be measured according to JIS K2220:2013.
In general, a “dropping point” is a physical property specified for a substance that is semisolid at room temperature such as grease, but a “dropping point” herein is a physical property specified not only for a substance that is semisolid at room temperature but also for a substance that is solid at room temperature. A dropping point of a substance that is solid at room temperature is, for example, equal to its melting point.

A short description of data set [3]: Octanol/water partition coefficient Log P at 25° C. The conditions noted are these: for logP: n-octanol/water.
Data set [4] is described as follows: physchem.

The text below walks through data of patent US12593865B2, “Member for flavor inhalation article, flavor inhalation article, phenol scavenger for flavor inhalation article, and method for producing flavor inhalation article” (Japan Tobacco Inc., priority 2019, dated 2026).

One may read the logP as the decadic logarithm of the partition coefficient of the neutral form, usually between octanol and water. Low readings indicate lower lipophilicity, high ones higher lipophilicity. For the molecule `COc1cc(CCC(C)=O)ccc1O` [Zingerone, zingerone], the “Vapor Pressure (Pa) at 25° C.” value turned out to be 0 Pa. In addition, the “HSP (phenol)” value in data set [1] was found to be 5.56. The “dropping point DP” value in data set [2] came to 54 °C. In data set [3], this molecule gave a logP of 1.54.
For the molecule `CC(=O)OCC(COC(C)=O)OC(C)=O` [Triacetin, triacetin, reference compound], the “Vapor Pressure (Pa) at 25° C.” value stood at 0 Pa. Further, the “HSP (phenol)” value in data set [1] is on record as 7.18. The “dropping point DP” value in data set [2] was 4 °C. For the same molecule, in data set [3] (octanol/water, 25° C.), the “Partition Coefficient Log P at 25° C.” value amounted to 0.25.
In turn, `CCOC(=O)CCC(=O)OCC` [Diethyl succinate, diethyl succinate, reference compound] yielded a logP in data set [3] of 1.26.
In the case of `CC(O)CCO` (centres unmarked) [1,3-butanediol], the “Vapor Pressure (Pa) at 25° C.” value was determined as 8 Pa. The logP in data set [4] is -0.74.
In the case of `Cc1occc(=O)c1O` [Maltol, maltol], the “HSP (phenol)” value in data set [1] worked out at 6.89. Moreover, the “dropping point DP” value in data set [2] was found to be 78 °C. In addition, the logP in data set [3] is -0.26.
Regarding `CC1=C(O)C(=O)CC1` [Cyclotene, cyclotene], in data set [1], the “HSP (phenol)” value stood at 5.37. For the same molecule, in data set [2], the “dropping point DP” value was 71 °C. For the same molecule, in data set [3], the logP came to 0.22.
On to `CC(O)CO` (centres unmarked) [Propylene glycol, propylene glycol, reference compound], for which the “HSP (phenol)” value in data set [1] was determined as 8.
For `O=C(O)c1ccccc1` [Benzoic acid, benzoic acid], the “HSP (phenol)” value in data set [1] worked out at 5.17. Further, in data set [2], the “dropping point DP” value came to 122 °C.
